“Also recorded” adds a separate entry of the source. Read-outs that look alike come from different tables or passages of the source.
Tests used:
high fat diet mice = settings: for % Body (percentage change in body weight): up to day 36
[1] = system: AMPK signal pathway in C2C12 cells; assay: Western blot assay, C2C12 cells
Protocol: Samples for immunoblotting studies were prepared for electrophoresis by adding in a final concentration of 1× Laemmli loading buffer (supplemented with 5% 2-mercaptoethanol). Samples were then electrophorized by SDS-PAGE (4-15% or 4-20% Criterion TGX Precast gel, Bio-Rad) at a constant voltage within the range of 140V. Proteins were transferred to a nitrocellulose membrane (Bio-Rad) using the Trans-Blot Turbo transfer system (Bio-Rad). Membranes were blocked with 5% BSA in TBST for a minimum of 1 hour at room temperature before incubating with the following primary antibodies: • Phospho-AMPKα (Thr172) (40H9) Rabbit mAb (CST, cat no: 2535S), • AMPKα Antibody (CST, cat no: 2532S) • Phospho-Raptor (Ser792) Antibody (CST, cat no: 2083S) • Raptor (24C12) Rabbit mAb (CST, cat no: 2280S) • Phospho-Acetyl-CoA Carboxylase (Ser79) Antibody (CST, cat no: 3661S) • Acetyl-CoA Carboxylase Antibody (CST, cat no: 3662S) • AMPKα2 Antibody (CST, cat no: 2757S) • AMPKβ1 antibody (CST, cat no: 12063) • AMPKβ2 Antibody (CST, CST, cat no: 4148S) • AMPKγ3 Antibody (CST, cat no: 2550S). […]
After differentiation of cells (e.g., HSKM, C2C12, L6) for 5 days, medium was changed to DHEM without FBS and glucose for starving cells for 2 hours. […] The resultant reaction mixture was then assayed and semi-quantitative histogram analysis of Western Blotting (signal value) was used to determine results.

[2] = system: human cardiomyocyte cells (HCM); assay: Glucose uptake assay, human cardiomyocyte cells; assay type: cell-based; settings: for AMPK activation activity (glucose uptake assay): 10 doses 100 μM to 0.005 μM
Protocol: FIGS. 17-19 show results for glucose update assays in human cardiomyocyte cells (“HCM”-healthy donor) (Promocell, cat. no. C-12810) when treated with compound I-11 (FIG. 17), compound I-7 (FIG. 18), and PF-06409577 (FIG. 19). After recovered HCM cells for 4 days, cells were starved for 3 hours in high glucose DMEM without FBS, treated with the components noted above in DMEM without FBS/glucose for 1 hour, and glucose uptake was detected using a glucose uptake kit (Promega). […] The bars show (from left to right) concentrations of 100 μM, 33 μM, 11 μM, 3.7 μM, 1.23 μM, 0.41 μM, 0.14 μM, 0.045 μM, 0.015 μM, 0.005 μM, 0 μM, and insulin.
FIGS. 20-22 show results for glucose update assays in human cardiomyocyte cells (“HCM”-diabetic donor) (Promocell, cat. no. C-12810) when treated with compound I-11 (FIG. 20), compound I-7 (FIG. 21), and PF-06409577 (FIG. 22). After recovered HCM cells for 4 days, cells were starved for 3 hours in high glucose DMEM without FBS, treated with the components noted above in DMEM without FBS/glucose for 1 hour, and glucose uptake was detected using a glucose uptake kit (Promega). […] The bars show (from left to right) concentrations of 100 μM, 33 μM, 11 μM, 3.7 μM, 1.23 μM, 0.41 μM, 0.14 μM, 0.045 μM, 0.015 μM, 0.005 μM, 0 μM, and insulin.
Human skeletal myoblasts were obtained (Thermofisher; BYU) and cultured in DMEM/F12 medium with 10% FBS. For differentiation, 2% horse serum low glucose DMEM medium was employed for 72 hours. Human cardiomyocytes cells (HCM cells; Promocell) were cultured in myocyte growth medium (Promocell). Human preadipocyte HWP-c cells (Promocell) were obtained from upper arm of diabetic II donor. Human preadipocyte HWP-c cells (Promocell) were obtained from abdomen of diabetic II donor. For differentiating human preadipocytes, cells were cultured in preadipocyte growth medium to total confluency stage. The growth medium was replaced with preadipocyte differentiation medium for 72 hours, then changed to PromoCell adipocyte nutrition medium to complete the differentiation process. THLE-2 cells were cultured in BEGM from Lonza/Clonetics Corporation, Walkersville, MD 21793 (BEGM Bullet Kit; CC3170). HepG2, L6 and C2Cl2 cells were cultured in EMEM medium.
After differentiation myoblasts, preadipocyte cells were starved by removing the medium and adding 100 μL DMEM without serum. The medium was then replaced with 100 μL DMEM±1 μM insulin at indicated concentration of representative compounds without serum or glucose. The cells were then incubated for 1 hour at 37° C. in 5% CO2. The cells were then removed from the medium and 50 μL of 0.1 mM 2DG in PBS was added. Cells were incubated for 30 minutes at 25° C. 25 μL of Stop Buffer was added and samples were mixed. 25 μL of Neutralization Buffer was then added and mixed. 100 μL of 2DG6P Detection Reagent was then added and mixed. Samples were then incubated for 1 hour at 25° C. Luminescence was then recorded with 0.3-1 second integration on a luminometer.

[3] = Plasma and tissue concentration in high fat diet mice, day 36; assay type: in vivo, mice (Mus musculus—C57BL-6); settings: for concentration at 1 h / concentration at 3 h / concentration at 4 h: male, C57BL-6, mouse, oral
Protocol: Doses were 30 and 50 mg/kg and administered orally (p.o.) once a day (QD) for 36 days. Dose volume was 10 mL/kg, which was administered to male, 18-22-week-old mice (Mus musculus—C57BL-6) with body weight between 18-19.4 g each. Mice were grouped into 3 groups of 10. The diet for induced obesity mice were selected as a test system
Plasma lipid profile: On day 34 total cholesterol levels, triglyceride, HDL, and LDL levels were detected. Plasma insulin (fasting) and plasma NEFA (fasting) was tested on day 36. Cumulative food consumption was measured daily starting from day 1 onwards up to end of the study period. Liver, heart, jejunum, and brain tissue were collected for additional testing.

O=c1[nH]c(-c2c[nH]c3cc(F)c(-c4ccc(C5(O)CCC5)cc4)c(F)c23)no1 [Compound I-11, 3-(4,6-difluoro-5-(4-(1-hydroxycyclobutyl)phenyl)-1H-indol-3-yl)-1,2,4-oxadiazol-5(4H)-one]
% fat mass (high fat diet mice; 30 mg/kg p.o. QD, Day 14): 53.75 ± 0.88% | area (cm^2; DEXA scan) (high fat diet mice; 30 mg/kg p.o. QD, Day 14): 13.26 ± 0.24 cm^2 | bone mineral content (BMC) (high fat diet mice; 30 mg/kg p.o. QD, Day 14): 1.04 ± 0.02 | bone mineral density (BMD) (high fat diet mice; 30 mg/kg p.o. QD, Day 14): 0.08 ± 0.00 | fat mass (gm) (high fat diet mice; 30 mg/kg p.o. QD, Day 14): 27.97 ± 0.67 gm | lean+bone mineral content (BMC-gm) (high fat diet mice; 30 mg/kg p.o. QD, Day 14): 24.11 ± 0.71 gm | total mass (gm) (high fat diet mice; 30 mg/kg p.o. QD, Day 14): 52.05 ± 1.04 gm | % fat mass (high fat diet mice; 30 mg/kg p.o. QD, Day −3): 46.39 ± 0.83% | area (cm^2; DEXA scan) (high fat diet mice; 30 mg/kg p.o. QD, Day −3): 12.61 ± 0.23 cm^2 | bone mineral content (BMC) (high fat diet mice; 30 mg/kg p.o. QD, Day −3): 1.01 ± 0.01 | bone mineral density (BMD) (high fat diet mice; 30 mg/kg p.o. QD, Day −3): 0.08 ± 0.00 | fat mass (gm) (high fat diet mice; 30 mg/kg p.o. QD, Day −3): 23.20 ± 0.60 gm | lean+bone mineral content (BMC-gm) (high fat diet mice; 30 mg/kg p.o. QD, Day −3): 26.78 ± 0.50 gm | total mass (gm) (high fat diet mice; 30 mg/kg p.o. QD, Day −3): 49.96 ± 0.75 gm | % Body (percentage change in body weight) (high fat diet mice; 30 mg/kg p.o. QD): 1.40 ± 0.21% | % fat mass (high fat diet mice; 50 mg/kg p.o. QD, Day 14): 50.05 ± 1.02% | area (cm^2; DEXA scan) (high fat diet mice; 50 mg/kg p.o. QD, Day 14): 12.93 ± 0.23 cm^2 | bone mineral content (BMC) (high fat diet mice; 50 mg/kg p.o. QD, Day 14): 1.04 ± 0.02 | bone mineral density (BMD) (high fat diet mice; 50 mg/kg p.o. QD, Day 14): 0.08 ± 0.00 | fat mass (gm) (high fat diet mice; 50 mg/kg p.o. QD, Day 14): 25.95 ± 0.84 gm | lean+bone mineral content (BMC-gm) (high fat diet mice; 50 mg/kg p.o. QD, Day 14): 25.83 ± 0.49 gm | total mass (gm) (high fat diet mice; 50 mg/kg p.o. QD, Day 14): 51.78 ± 0.85 gm | % fat mass (high fat diet mice; 50 mg/kg p.o. QD, Day −3): 46.37 ± 2.15% | area (cm^2; DEXA scan) (high fat diet mice; 50 mg/kg p.o. QD, Day −3): 12.56 ± 0.30 cm^2 | bone mineral content (BMC) (high fat diet mice; 50 mg/kg p.o. QD, Day −3): 1.01 ± 0.02 | bone mineral density (BMD) (high fat diet mice; 50 mg/kg p.o. QD, Day −3): 0.08 ± 0.00 | fat mass (gm) (high fat diet mice; 50 mg/kg p.o. QD, Day −3): 23.44 ± 1.29 gm | lean+bone mineral content (BMC-gm) (high fat diet mice; 50 mg/kg p.o. QD, Day −3): 26.97 ± 1.03 gm | total mass (gm) (high fat diet mice; 50 mg/kg p.o. QD, Day −3): 50.40 ± 0.80 gm | % Body (percentage change in body weight) (high fat diet mice; 50 mg/kg p.o. QD): −0.34 ± 0.73% | clinical signs, morbidity, mortality (high fat diet mice; 30 and 50 mg/kg p.o. QD for 36 days): no observations of clinical signs or morbidity, and no mortality | pAMPK/pACC/AMPKα2β1β2γ3 expression [1]: also induce | AMPK activation activity (glucose uptake assay) ([2]; diabetic donor): did not show AMPK activation activity | glucose uptake ([2]; donor not stated): did not induce glucose uptake in dose-dependent manner; also recorded: did not activate glucose uptake | AMPK activation activity (glucose uptake assay) ([2]; healthy donor): did not show AMPK activation activity | Brain (ng/mL) ([3]; 30 mg/kg, 1 hr): BLQ | Brain (ng/mL) ([3]; 30 mg/kg, 3 hr): BLQ | Skeletal muscle (ng/mL) ([3]; 30 mg/kg, 3 hr): BLQ | Brain (ng/mL) ([3]; 50 mg/kg, 1 hr): BLQ | Skeletal muscle (ng/mL) ([3]; 50 mg/kg, 1 hr): BLQ | Brain (ng/mL) ([3]; 50 mg/kg, 3 hr): BLQ | Skeletal muscle (ng/mL) ([3]; 50 mg/kg, 3 hr): BLQ | Brain (ng/mL) ([3]; 50 mg/kg, 4 hr): BLQ | Skeletal muscle (ng/mL) ([3]; 50 mg/kg, 4 hr): BLQ | concentration at 1 h ([3]; adipose tissue (abdominal fat), 30 mg/kg, 1 hr, read-out: Adipose tissue (abdominal fat)): 57 ng/mL | concentration at 3 h ([3]; adipose tissue (abdominal fat), 30 mg/kg, 3 hr, read-out: Adipose tissue (abdominal fat)): 23 ng/mL | concentration at 4 h ([3]; adipose tissue (abdominal fat), 30 mg/kg, 4 hr, read-out: Adipose tissue (abdominal fat)): 38 ng/mL | concentration at 1 h ([3]; adipose tissue (abdominal fat), 50 mg/kg, 1 hr, read-out: Adipose tissue (abdominal fat)): 2000 ng/mL | concentration at 3 h ([3]; adipose tissue (abdominal fat), 50 mg/kg, 3 hr, read-out: Adipose tissue (abdominal fat)): 1590 ng/mL | concentration at 4 h ([3]; adipose tissue (abdominal fat), 50 mg/kg, 4 hr, read-out: Adipose tissue (abdominal fat)): 1760 ng/mL | concentration at 4 h ([3]; brain, 30 mg/kg, 4 hr, read-out: Brain): 6 ng/mL | concentration at 1 h ([3]; heart, 30 mg/kg, 1 hr, read-out: Heart): 103 ng/mL | concentration at 3 h ([3]; heart, 30 mg/kg, 3 hr, read-out: Heart): 32 ng/mL | concentration at 4 h ([3]; heart, 30 mg/kg, 4 hr, read-out: Heart): 31 ng/mL | concentration at 1 h ([3]; heart, 50 mg/kg, 1 hr, read-out: Heart): 52 ng/mL | concentration at 3 h ([3]; heart, 50 mg/kg, 3 hr, read-out: Heart): 36 ng/mL | concentration at 4 h ([3]; heart, 50 mg/kg, 4 hr, read-out: Heart): 102 ng/mL | concentration at 1 h ([3]; jejunum, 30 mg/kg, 1 hr, read-out: Jejunum): 124000 ng/mL | concentration at 3 h ([3]; jejunum, 30 mg/kg, 3 hr, read-out: Jejunum): 35 ng/mL | concentration at 4 h ([3]; jejunum, 30 mg/kg, 4 hr, read-out: Jejunum): 27 ng/mL | concentration at 1 h ([3]; jejunum, 50 mg/kg, 1 hr, read-out: Jejunum): 4390 ng/mL | concentration at 3 h ([3]; jejunum, 50 mg/kg, 3 hr, read-out: Jejunum): 165 ng/mL | concentration at 4 h ([3]; jejunum, 50 mg/kg, 4 hr, read-out: Jejunum): 55 ng/mL | concentration at 1 h ([3]; liver, 30 mg/kg, 1 hr, read-out: Liver): 118 ng/mL | concentration at 3 h ([3]; liver, 30 mg/kg, 3 hr, read-out: Liver): 74 ng/mL | concentration at 4 h ([3]; liver, 30 mg/kg, 4 hr, read-out: Liver): 106 ng/mL | concentration at 1 h ([3]; liver, 50 mg/kg, 1 hr, read-out: Liver): 80 ng/mL | concentration at 3 h ([3]; liver, 50 mg/kg, 3 hr, read-out: Liver): 64 ng/mL | concentration at 4 h ([3]; liver, 50 mg/kg, 4 hr, read-out: Liver): 71 ng/mL | concentration at 1 h ([3]; plasma, 30 mg/kg, 1 hr, read-out: Plasma): 627 ng/mL | concentration at 3 h ([3]; plasma, 30 mg/kg, 3 hr, read-out: Plasma): 147 ng/mL | concentration at 4 h ([3]; plasma, 30 mg/kg, 4 hr, read-out: Plasma): 121 ng/mL | concentration at 1 h ([3]; plasma, 50 mg/kg, 1 hr, read-out: Plasma): 501 ng/mL | concentration at 3 h ([3]; plasma, 50 mg/kg, 3 hr, read-out: Plasma): 199 ng/mL | concentration at 4 h ([3]; plasma, 50 mg/kg, 4 hr, read-out: Plasma): 112 ng/mL | concentration at 1 h ([3]; skeletal muscle, 30 mg/kg, 1 hr, read-out: Skeletal muscle): 287 ng/mL | concentration at 4 h ([3]; skeletal muscle, 30 mg/kg, 4 hr, read-out: Skeletal muscle): 56 ng/mL
